Data as given in patent US10174037B2, “Dihydropyrazolopyrimidinone compounds as PDE2 inhibitors” (Merck Sharp & Dohme Corp., priority 2015, dated 2019).
Read-outs that look alike come from different tables or passages of the source.

What was measured:
Rhesus PDE2A3 = Rhesus PDE2A3 (Macaca mulatta, UniProt B3VTJ2); assay: PDE2 fluorescence polarization (IMAP FP) assay, rhesus PDE2A3; format: biochemical, rhesus macaque
Method: A Labcyte Echo 555 (Labcyte, Sunnyvale, Calif.) is used to dispense 200 nL from each well of the titration plate to the 384 well assay plate. Ten microliters of a solution of enzyme (1/2000 final dilution from aliquots; sufficient to produce 20% substrate conversion) was added to the assay plate. Next 10 uL of a separate solution of the substrate FAM-labeled cAMP (50 nM final concentration product # R7506 from Molecular Devices) and the activator cGMP (1 uM final concentration), prepared in the assay buffer (10 mM Tris HCl, pH 7.2, 10 mM MgCl2, 0.05% NaN3 0.01% Tween-20, and 1 mM DTT) was added to the assay plate and shaken to mix. The reaction is allowed to proceed at room temperature for 60 minutes. A binding solution is then made from the kit components, comprised of 80% Solution A, 20% Solution B and binding reagent at a volume of 1/600 the total binding solution. The enzymatic reaction is stopped by addition of 60 μL of the binding solution to each well of the assay plates and the plates are sealed and shaken for 30 seconds. The plate was incubated at room temperature for at least one hour prior to determining the fluorescence polarization (FP). The parallel and perpendicular fluorescence of each well of the plate was measured using a Tecan Genios Pro plate reader (Tecan, Switzerland) or Perkin Elmer EnVision™ plate reader (Waltham, Mass.). Fluorescence polarization (mP) was calculated from the parallel (S) and perpendicular (P) fluorescence of each sample well and the analogous values for the median control well, containing only substrate (So and Po), using the following equation: Polarization (mP)=1000*(S/So−P/Po)/(S/So+P/Po).
Dose-inhibition profiles for each compound were characterized by fitting the mP data to a four-parameter equation given below.
An apparent (KM) for FAM-labeled cAMP of ˜10 uM was used.

human PDE2A1 = human PDE2A1 (Homo sapiens (Human), UniProt O00408); assay: PDE selectivity IMAP FP assay, human PDE2A1; format: biochemical; settings: Human PDE2
Summary of the method: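 IMAP fluorescence polarization assay; PDE2 substrate 50 nM FAM-cAMP containing 1000 nM cGMP, enzyme diluted for 20% substrate conversion, in 10 mM Tris HCl pH 7.2, 10 mM MgCl2, 1 mM DTT. Reaction 60 min at room temperature, stopped with IMAP binding solution; polarization read after 1 h. Ki reported.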

[1] = Lab B, read-out: Rhesus PDE2 Ki (nM) Lab B
[2] = Lab B, read-out: Human PDE2 Ki (nM) Lab B
[3] = Lab A, read-out: Rhesus PDE2 Ki (nM) Lab A
[4] = Lab A, read-out: Human PDE2 Ki (nM) Lab A

Rhesus PDE2A3, sequence (B3VTJ2 1-941): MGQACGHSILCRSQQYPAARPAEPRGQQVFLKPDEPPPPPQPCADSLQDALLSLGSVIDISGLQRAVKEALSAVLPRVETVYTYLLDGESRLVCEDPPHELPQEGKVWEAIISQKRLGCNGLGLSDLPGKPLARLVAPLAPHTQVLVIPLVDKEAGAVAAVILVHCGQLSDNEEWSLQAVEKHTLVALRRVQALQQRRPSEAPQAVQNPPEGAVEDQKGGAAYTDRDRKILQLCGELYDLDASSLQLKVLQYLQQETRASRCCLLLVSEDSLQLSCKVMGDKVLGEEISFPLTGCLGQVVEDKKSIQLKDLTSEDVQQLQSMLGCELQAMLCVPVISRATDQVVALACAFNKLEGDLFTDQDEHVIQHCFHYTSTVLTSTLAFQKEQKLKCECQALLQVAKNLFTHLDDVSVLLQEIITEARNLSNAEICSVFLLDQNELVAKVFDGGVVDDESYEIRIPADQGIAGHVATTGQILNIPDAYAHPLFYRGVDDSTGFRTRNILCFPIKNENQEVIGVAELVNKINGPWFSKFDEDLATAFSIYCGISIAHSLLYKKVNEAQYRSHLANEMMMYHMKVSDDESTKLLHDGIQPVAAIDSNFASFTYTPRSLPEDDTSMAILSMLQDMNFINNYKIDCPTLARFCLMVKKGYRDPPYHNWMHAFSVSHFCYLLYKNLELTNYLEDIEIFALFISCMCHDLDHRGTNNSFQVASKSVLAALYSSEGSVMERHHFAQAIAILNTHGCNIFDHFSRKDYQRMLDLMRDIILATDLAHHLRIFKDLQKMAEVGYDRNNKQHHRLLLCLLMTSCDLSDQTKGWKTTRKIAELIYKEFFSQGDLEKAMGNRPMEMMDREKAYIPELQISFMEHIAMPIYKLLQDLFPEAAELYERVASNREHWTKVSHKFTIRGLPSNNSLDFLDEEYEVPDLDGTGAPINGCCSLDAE
human PDE2A1, sequence (O00408 other isoform, or with tags, fused parts or gaps): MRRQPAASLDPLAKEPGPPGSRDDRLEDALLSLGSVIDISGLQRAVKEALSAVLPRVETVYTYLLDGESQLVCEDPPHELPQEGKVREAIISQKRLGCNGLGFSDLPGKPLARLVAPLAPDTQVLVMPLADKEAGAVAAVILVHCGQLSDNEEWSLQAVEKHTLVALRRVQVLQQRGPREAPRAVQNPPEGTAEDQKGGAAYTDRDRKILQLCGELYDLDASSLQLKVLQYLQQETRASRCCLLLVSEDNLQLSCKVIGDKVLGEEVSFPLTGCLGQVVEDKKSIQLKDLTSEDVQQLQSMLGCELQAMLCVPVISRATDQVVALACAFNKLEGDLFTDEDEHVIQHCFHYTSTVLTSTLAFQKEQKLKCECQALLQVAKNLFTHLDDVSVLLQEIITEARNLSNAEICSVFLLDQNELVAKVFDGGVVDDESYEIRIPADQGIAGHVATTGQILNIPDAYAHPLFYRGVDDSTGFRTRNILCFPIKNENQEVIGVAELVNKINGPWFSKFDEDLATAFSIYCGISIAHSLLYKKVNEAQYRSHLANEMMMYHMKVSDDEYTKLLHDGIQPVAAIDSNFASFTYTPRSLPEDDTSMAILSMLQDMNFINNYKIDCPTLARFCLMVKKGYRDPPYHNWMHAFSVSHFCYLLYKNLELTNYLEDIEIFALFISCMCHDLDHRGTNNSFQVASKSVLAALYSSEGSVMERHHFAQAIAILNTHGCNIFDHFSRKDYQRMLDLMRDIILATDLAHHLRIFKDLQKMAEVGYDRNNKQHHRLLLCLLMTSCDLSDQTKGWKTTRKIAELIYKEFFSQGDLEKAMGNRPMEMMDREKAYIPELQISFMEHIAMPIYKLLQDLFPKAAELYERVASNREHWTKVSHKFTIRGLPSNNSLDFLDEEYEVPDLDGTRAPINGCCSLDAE

Ki (Rhesus PDE2A3; [1]) [nM]	Ki (human PDE2A1; [2]) [nM]	Ki (Rhesus PDE2A3; [3]) [nM]	Ki (human PDE2A1; [4]) [nM]	Ki (Rhesus PDE2A3; Rhesus PDE2 Ki (nM) Lab B, Lab B) [nM]	Structure (SMILES)
2.4	2.1	–	–	–	C[C@H](c1ccc(C(F)(F)F)c(F)c1)n1nc(CF)c2c(=O)[nH]c(O)nc21 (mixture of isomers) [Example 34, (R)- and (S)-1-(1-(3-Fluoro-4-(trifluoromethyl)phenyl)ethyl)-3-(fluoromethyl)-6-hydroxy-H-pyrazolo[3,4-d]pyrimidin-4(5H)-one]
13	9.6	–	–	–	CC(c1ccc(OC(F)(F)F)c(F)c1)n1nc(CC(F)(F)F)c2c(=O)[nH]c(O)nc21 (racemic) [Example 229, 1-(1-(3-Fluoro-4-(trifluoromethoxy)phenyl)ethyl)-6-hydroxy-3-(2,2,2-trifluoroethyl)-1H-pyrazolo[3,4-d]pyrimidin-4(5H)-one]
21	13	–	–	–	CC(c1ccc(OC(F)(F)F)cc1)n1nc(CC(F)(F)F)c2c(=O)[nH]c(O)nc21 (racemic) [Example 230, 6-Hydroxy-3-(2,2,2-trifluoroethyl)-1-(1-(4-(trifluoromethoxy)phenyl)ethyl)-1H-pyrazolo[3,4-d]pyrimidin-4(5H)-one]
25	18	–	–	–	CC(c1ccc(S(F)(F)(F)(F)F)cc1)n1nc(CC(F)(F)F)c2c(=O)[nH]c(O)nc21 (racemic) [Example 231, 6-Hydroxy-3-(2,2,2-trifluoroethyl)-1-(1-(4-(pentafluorosulfanyl)phenyl)ethyl)-1H-pyrazolo[3,4-d]pyrimidin-4(5H)-one]
13	11	–	–	–	CC(c1ccc(C(F)(F)F)c(F)c1)n1nc(CO)c2c(=O)[nH]c(O)nc21 (single isomer, unassigned) [Example 1]
9.2	8.3	–	–	–	CC(C)C(c1ccc(C(F)(F)F)cc1)n1nc(CO)c2c(=O)[nH]c(O)nc21 (single isomer, unassigned) [Example 13, (S)- or (R)-6-Hydroxy-3-(hydroxymethyl)-1-(2-methyl-1-(4-(trifluoromethyl)phenyl)propyl)-1H-pyazolo[3,4-d]pyrimidin-4(5H)-one]
20	24	14	9	–	CC(c1ccc(C(F)(F)F)cc1)n1nc(CO)c2c(=O)[nH]c(O)nc21 (single isomer, unassigned) [Example 19, (S)- or (R)-6-Hydroxy-3-(hydroxymethyl)-1-{1-[4-(trifluoromethyl)phenyl]ethyl}-1,5-dihydro-4H-pyrazolo[3,4-d]pyrimidin-4-one]
27	28	20	13	–	CC(c1ccc(S(F)(F)(F)(F)F)cc1)n1nc(CO)c2c(=O)[nH]c(O)nc21 (single isomer, unassigned) [Example 21, (S)- or (R)-6-Hydroxy-3-(hydroxymethyl)-1-{1-[4-(pentafluorosulfanyl)phenyl]ethyl}-1,5-dihydro-4H-pyrazolo[3,4-d]pyrimidin-4-one]
5.2	7	–	–	–	CC(C)C(c1ccc(C(F)(F)F)c(F)c1)n1nc(CO)c2c(=O)[nH]c(O)nc21 (single isomer, unassigned) [Example 27, (R)- or (S)-1-(1-(3-Fluoro-4-(trifluoromethyl)phenyl)-2-methylpropyl)-6-hydroxy-3-(hydroxymethyl)-1H-pyrazolo[3,4-d]pyrimidin-4(5H)-one]
–	14	–	–	16	CC(C)C(c1ccc(OC(F)(F)F)cc1)n1nc(CF)c2c(=O)[nH]c(O)nc21 (single isomer, unassigned) [Example 42, (R)- or (S)-3-(Fluoromethyl)-6-hydroxy-1-(2-methyl-1-(4-(trifluoromethoxy)phenyl)propyl)-1H-pyrazolo[3,4-d]pyrimidin-4(5H)-one]
4.7	5.3	–	–	–	CC(C)C(c1ccc(OC(F)(F)F)cc1)n1nc(CF)c2c(=O)[nH]c(O)nc21 (single isomer, unassigned) [Example 43, (S)- or (R)-3-(Fluorornethyl)-6-hydroxy-1-(2-methyl-1-(4-(trifluoromethoxy)phenyl)propyl)-1H-pyrazolo[3,4-d]pyrimidin-4(5H)-one]
9.8	10	–	–	–	O=c1[nH]c(O)nc2c1c(CF)nn2C(c1ccc(OC(F)(F)F)c(F)c1)C1CC1 (single isomer, unassigned) [Example 44]
29	28	–	–	–	O=c1[nH]c(O)nc2c1c(CF)nn2C(c1ccc(OC(F)(F)F)c(F)c1)C1CC1 (single isomer, unassigned) [Example 45]
1.3	0.96	–	–	–	CC(C)C(c1ccc(C(F)(F)F)c(F)c1)n1nc(CF)c2c(=O)[nH]c(O)nc21 (single isomer, unassigned) [Example 55]
36	37	–	–	–	CC(C)C(c1ccc(C(F)(F)F)c(F)c1)n1nc(CF)c2c(=O)[nH]c(O)nc21 (single isomer, unassigned) [Example 56]
0.28	0.27	–	–	–	CN(C)c1nc2c(c(CO)nn2C(c2ccc(C(F)F)cc2)C2CC2)c(=O)[nH]1 (single isomer, unassigned) [Example 62]
0.39	0.29	–	–	–	CC(C)C(c1ccc(C(F)(F)F)cc1)n1nc(CO)c2c(=O)[nH]c(N(C)C)nc21 (single isomer, unassigned) [Example 64, (R)- or (S)-6-Dimethylamino)-3-(hydroxymethyl)-1-(2-methyl-1-(4-(trifluoromethyl)phenyl)propyl)-1H-pyrazolo[3,4-d]pyrimidin-4(5H)-one]
0.076	0.069	–	–	–	CC(C)C(c1ccc(C(F)(F)F)cc1)n1nc(CO)c2c(=O)[nH]c(N(C)C)nc21 (single isomer, unassigned) [Example 65, (S)- or (R)-6-Dimethylamino)-3-(hydroxymethyl)-1-(2-methyl-1-(4-(trifluoromethyl)phenyl)propyl)-1H-pyrazolo[3,4-d]pyrimidin-4(5H)-one]
12	6.1	–	–	–	CC(c1ccc(C(C)(C)C)cc1)n1nc(CO)c2c(=O)[nH]c(N(C)C)nc21 (single isomer, unassigned) [Example 66, (R)- or (S)-1-(1-(4-tert-Butylphenyl)ethyl)-6-(dimethylamino)-3-(hydroxymethyl)-1H-pyrazolo[3,4-d]pyrimidin-4(5H)-one]
11	7.1	–	–	–	CC(c1ccc(C(F)(F)F)c(F)c1)n1nc(CO)c2c(=O)[nH]c(N(C)C)nc21 (single isomer, unassigned) [Example 68, (R)- or (S)-6-(Dimethylamino)-1-(1-(3-fluoro-4-(trifluoromethyl)phenyl)ethyl)-3-(hydroxymethyl)-1H-pyrazolo[3,4-d]pyrimidin-4(5H)-one]
0.27	0.27	–	–	–	CC(c1ccc(C(F)(F)F)c(F)c1)n1nc(CO)c2c(=O)[nH]c(N(C)C)nc21 (single isomer, unassigned) [Example 69, (S)- or (R)-6-(Dimethylamino)-1-(1-(3-fluoro-4-(trifluoromethyl)phenyl)ethyl)-3-(hydroxymethyl)-1H-pyrazolo[3,4-d]pyrimidin-4(5H)-one]
0.95	0.75	–	–	–	CC(c1ccc(CC(F)(F)F)cc1)n1nc(CO)c2c(=O)[nH]c(N(C)C)nc21 (single isomer, unassigned) [Example 71, (S)- or (R)-6-(Dimethylamino)-3-(hydroxymethyl)-1-(1-(4-(2,2,2-trifluoroethyl)phenyl)ethyl)-1H-pyrazolo[3,4-d]pyrimidin-4(5H)-one]
–	–	411	–	–	Cc1ccc(C(C)n2nc(CO)c3c(=O)[nH]c(O)nc32)cc1 (stereo not shown) [Example 8]
–	–	~548	–	–	O=c1[nH]c(O)nc2c1c(CO)nn2Cc1ccc(C(F)(F)F)cc1 [Example 9, 6-Hydroxy-3-(hydroxymethyl)-1-[4-(trifluoromethyl)benzyl]-1,5-dihydro-4H-pyrazolo[3,4-d]pyrimidin-4-one]
–	–	~951	–	–	Cc1nn(Cc2ccc(C(F)(F)F)cc2)c2nc(O)[nH]c(=O)c12 [Example 61, 6-Hydroxy-3-methyl-1-[4-(trifluoromethyl)benzyl]-1,5-dihydro-4H-pyrazolo[3,4-d]pyrimidin-4-one]
206	–	–	–	–	C[C@@H](c1ccc(C(F)(F)F)cc1)n1nc(COCc2ccccc2)c2c(=O)[nH]c(O)nc21 [Example 303, (S)-3-((Benzyloxy)methyl)-6-hydroxy-1-(1-(4-(trifluoromethyl)phenyl)ethyl)-1,5-dihydro-4H-pyrazolo[3,4-d]pyrimidin-4-one]
